The source of these data is patent publication US7410963B2, “Benzo-1,4-diazepin-2-one derivatives as phosphodiesterase PDE2 inhibitors, preparation and therapeutic use thereof” (VIA Pharmaceuticals, Inc., priority 2003, dated 2008).

In the first assay the target is T1, PDE2 (Bos taurus, UniProt P14099).
T1 sequence (P14099 1-921): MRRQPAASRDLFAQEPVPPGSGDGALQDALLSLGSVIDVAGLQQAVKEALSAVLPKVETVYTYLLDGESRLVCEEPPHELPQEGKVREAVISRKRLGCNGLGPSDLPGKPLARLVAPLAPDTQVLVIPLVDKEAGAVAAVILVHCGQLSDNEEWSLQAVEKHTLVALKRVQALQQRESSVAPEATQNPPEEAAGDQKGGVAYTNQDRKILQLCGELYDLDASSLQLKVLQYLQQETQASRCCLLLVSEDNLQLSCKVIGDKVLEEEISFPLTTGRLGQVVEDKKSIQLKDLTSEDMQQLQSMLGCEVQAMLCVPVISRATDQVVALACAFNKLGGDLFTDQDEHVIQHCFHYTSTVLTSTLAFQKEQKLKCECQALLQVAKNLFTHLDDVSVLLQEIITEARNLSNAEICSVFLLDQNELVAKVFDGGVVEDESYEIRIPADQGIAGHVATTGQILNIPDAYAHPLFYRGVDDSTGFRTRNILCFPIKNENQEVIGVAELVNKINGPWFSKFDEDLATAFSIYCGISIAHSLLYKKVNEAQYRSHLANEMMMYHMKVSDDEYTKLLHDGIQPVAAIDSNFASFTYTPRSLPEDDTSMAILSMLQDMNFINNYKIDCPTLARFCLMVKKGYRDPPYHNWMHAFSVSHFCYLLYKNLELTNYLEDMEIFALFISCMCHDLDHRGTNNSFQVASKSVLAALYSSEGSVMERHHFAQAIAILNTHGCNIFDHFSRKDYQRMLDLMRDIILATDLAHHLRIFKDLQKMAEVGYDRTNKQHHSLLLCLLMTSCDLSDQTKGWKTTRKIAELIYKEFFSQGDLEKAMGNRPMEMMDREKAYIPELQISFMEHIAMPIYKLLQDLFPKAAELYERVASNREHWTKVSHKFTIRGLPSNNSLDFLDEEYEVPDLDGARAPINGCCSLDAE
Briefly: Radioenzymatic phosphodiesterase assay: PDE2 inhibition. The class given is biochemical, bovine. Particulars: Table 1; 10 μM test compound; read-out: PDE2 percentage of inhibition at 10 μM. Here is the method: Nucleoside radioactivity was determined by liquid scintillation.
As a reminder, the inhibition is the share of the control response that was lost under treatment. For `COc1ccccc1-c1cc2c(cc1OC)N(CCc1ccccc1)C(=O)CN=C2c1cccc(C#N)c1` [Example 38, 3-[8-Methoxy-7-(2-methoxy-phenyl)-2-oxo-1-phenethyl-2,3-dihydro-1H-benzo[e][1,4]diazepin-5-yl]-benzonitrile], the inhibition at 10 µM turned out to be 86%.
Turning to `CN1C(=O)CN=C(c2cccc(Cl)c2)c2cc(-c3ccccc3)ccc21` [Example 40, 5-(3-Chloro-phenyl)-1-methyl-7-phenyl-1,3-dihydro-benzo[e][1,4]diazepin-2-one], the inhibition at 10 µM stood at 68%.
The same measure, in the same setting: the same measure for `CN1C(=O)CN=C(c2ccccc2Cl)c2cc(-c3ccccc3)ccc21` [Example 41, 5-(2-Chloro-phenyl)-1-methyl-7-phenyl-1,3-dihydro-benzo[e][1,4]diazepin-2-one]: 34%; for `CN1C(=O)CN=C(c2ccc(Cl)cc2)c2cc(-c3ccccc3)ccc21` [Example 42, 5-(4-Chloro-phenyl)-1-methyl-7-phenyl-1,3-dihydro-benzo[e][1,4]diazepin-2-one]: 1%.
Turning to `COc1ccccc1C1=NCC(=O)N(C)c2ccc(-c3ccccc3)cc21` [Example 51, 5-(2-Methoxy-phenyl)-1-methyl-7-phenyl-1,3-dihydro-benzo[e][1,4]diazepin-2-one], the inhibition at 10 µM was 28%.
In the case of `CN1C(=O)CN=C(c2cccc(C#N)c2)c2cc(-c3ccco3)ccc21` [Example 52, 3-[7-(Furan-2-yl)-1-methyl-2-oxo-2,3-dihydro-1H-benzo[e][1,4]diazepin-5-yl]-benzonitrile], the inhibition at 10 µM is 78%.
On the same count and under the same terms, for `CN1C(=O)CN=C(c2cc(Cl)cc(Cl)c2)c2cc(-c3ccccc3)ccc21` [Example 55, 5-(3,5-Dichloro-phenyl)-1-methyl-7-phenyl-1,3-dihydro-benzo[e][1,4]diazepin-2-one] the value was 53%; for `CN1C(=O)CN=C(c2ccc(Cl)c(Cl)c2)c2cc(-c3ccccc3)ccc21` [Example 56, 5-(3,4-Dichloro-phenyl)-1-methyl-7-phenyl-1,3-dihydro-benzo[e][1,4]diazepin-2-one], 70%; for `CN1C(=O)CN=C(c2ccc(F)cc2)c2cc(-c3ccccc3)ccc21` [Example 57, 5-(4-Fluoro-phenyl)-1-methyl-7-phenyl-1,3-dihydro-benzo[e][1,4]diazepin-2-one], 74%.
For `CC(=O)c1cccc(C2=NCC(=O)N(C)c3ccc(-c4ccccc4)cc32)c1` [Example 58, 5-(3-Acetyl-phenyl)-1-methyl-7-phenyl-1,3-dihydro-benzo[e][1,4]diazepin-2-one], the inhibition at 10 µM stood at 91%.
Same read-out and setting: for `CN1C(=O)CN=C(c2cccc(C(F)(F)F)c2)c2cc(-c3ccccc3)ccc21` [Example 59, 1-Methyl-7-phenyl-5-(3-trifluoromethyl-phenyl)-1,3-dihydro-benzo[e][1,4]diazepin-2-one] the value was 43%; for `Cc1ccc(C2=NCC(=O)N(C)c3ccc(-c4ccccc4)cc32)cc1[N+](=O)[O-]` [Example 60, 1-Methyl-5-(4-methyl-3-nitro-phenyl)-7-phenyl-1,3-dihydro-benzo[e][1,4]diazepin-2-one], 88%.
Regarding `CN1C(=O)CN=C(c2ccc(OC(F)(F)F)cc2)c2cc(-c3ccccc3)ccc21` [Example 61, 1-Methyl-7-phenyl-5-(4-trifluoromethoxy-phenyl)-1,3-dihydro-benzo[e][1,4]diazepin-2-one], the inhibition at 10 µM was found to be 31%.
The same measure, in the same setting: for `COc1cc2c(cc1-c1ccccc1)C(c1cccc(Br)c1)=NCC(=O)N2C` [Example 62, 5-(3-Bromo-phenyl)-8-methoxy-1-methyl-7-phenyl-1,3-dihydro-benzo[e][1,4]diazepin-2-one] the value was 98%; for `COc1ccc(C2=NCC(=O)N(C)c3ccc(-c4ccccc4)cc32)cc1OC` [Example 64, 5-(3,4-Dimethoxy-phenyl)-1-methyl-7-phenyl-1,3-dihydro-benzo[e][1,4]diazepin-2-one], 79%.
For `CN1C(=O)CN=C(c2cccc([N+](=O)[O-])c2)c2cc(-c3ccccc3)ccc21` [Example 65, 1-Methyl-5-(3-nitro-phenyl)-7-phenyl-1,3-dihydro-benzo[e][1,4]diazepin-2-one], the inhibition at 10 µM was 78%.

Still in this assay, the particulars now being: read-out: PDE2 percentage of inhibition at 10 μM.
For the compound `CCCN1C(=O)CN=C(c2cccc(C#N)c2)c2cc(-c3ccccc3OC)c(OC)cc21` [Example 37, 3-[8-Methoxy-7-(2-methoxy-phenyl)-2-oxo-1-propyl-2,3-dihydro-1H-benzo[e][1,4]diazepin-5-yl]-benzonitrile], the inhibition at 10 µM was 45%.
Same read-out and setting: for `COc1ccccc1-c1cc2c(cc1OC)N(Cc1ccccc1)C(=O)CN=C2c1cccc(C#N)c1` [Example 39, 3-[1-Benzyl-8-methoxy-7-(2-methoxy-phenyl)-2-oxo-2,3-dihydro-1H-benzo[e][1,4]diazepin-5-yl]-benzonitrile] the value was 72%; for `COc1cc2c(cc1-c1ccc(C#N)cc1)C(c1cccc(C#N)c1)=NCC(=O)N2C` [Example 43, 3-(8-Methoxy-1-methyl-2-oxo-7-(4-cyanophenyl)-2,3-dihydro-1H-benzo[e][1,4]diazepin-5-yl)-benzonitrile], 92%.
Same read-out and setting: the same measure for `COc1ccccc1-c1cc2c(cc1OC)N(Cc1ccccc1)C(=O)CN=C2c1cccc(C(N)=O)c1` [Example 44, 3-[1-Benzyl-8-methoxy-7-(2-methoxy-phenyl)-2-oxo-2,3-dihydro-1H-benzo[e][1,4]diazepin-5-yl]-benzamide]: 88%; for `CCCN1C(=O)CN=C(c2cccc(C(N)=O)c2)c2cc(-c3ccccc3OC)c(OC)cc21` [Example 45, 3-[8-Methoxy-7-(2-methoxy-phenyl)-2-oxo-1-propyl-2,3-dihydro-1H-benzo[e][1,4]diazepin-5-yl]-benzamide]: 48%; for `COc1ccccc1-c1cc2c(cc1OC)N(CCc1ccccc1)C(=O)CN=C2c1cccc(C(N)=O)c1` [Example 46, 3-[8-Methoxy-7-(2-methoxy-phenyl)-2-oxo-1-phenethyl-2,3-dihydro-1H-benzo[e][1,4]diazepin-5-yl]-benzamide]: 78%.
The same measure, in the same setting: the same measure for `CCCCCCN1C(=O)CN=C(c2cccc(C(N)=O)c2)c2cc(-c3ccccc3OC)c(OC)cc21` [Example 47, 3-[1-Hexyl-8-methoxy-7-(2-methoxy-phenyl)-2-oxo-2,3-dihydro-1H-benzo[e][1,4]diazepin-5-yl]-benzamide]: 59%; for `COc1cc2c(cc1-c1ccc(C(C)=O)cc1)C(c1cccc(C#N)c1)=NCC(=O)N2C` [Example 48, 3-[7-(4-Acetylphenyl)-8-methoxy-1-methyl-2-oxo-2,3-dihydro-1H-benzo[e][1,4]diazepin-5-yl]-benzonitrile]: 97%; for `COc1cc2c(cc1-c1ccc(C(C)=O)cc1)C(c1cccc(C(N)=O)c1)=NCC(=O)N2C` [Example 49, 3-[7-(4-Acetylphenyl)-8-methoxy-1-methyl-2-oxo-2,3-dihydro-1H-benzo[e][1,4]diazepin-5-yl]-benzamide]: 99%.
As to `COc1ccc(C2=NCC(=O)N(C)c3ccc(-c4ccccc4)cc32)cc1` [Example 50, 5-(4-Methoxy-phenyl)-1-methyl-7-phenyl-1,3-dihydro-benzo[e][1,4]diazepin-2-one], the inhibition at 10 µM turned out to be 95%.
Same read-out and setting: for `COc1ccc(-c2ccc3c(c2)C(c2cccc(C#N)c2)=NCC(=O)N3C)cc1OC` [Example 53, 3-[7-(3,4-Dimethoxy-phenyl)-1-methyl-2-oxo-2,3-dihydro-1H-benzo[e][1,4]diazepin-5-yl]-benzonitrile] the value was 95%; for `COc1ccc(-c2ccc3c(c2)C(c2cccc(C(N)=O)c2)=NCC(=O)N3C)cc1OC` [Example 54, 3-[7-(3,4-Dimethoxy-phenyl)-1-methyl-2-oxo-2,3-dihydro-1H-benzo[e][1,4]diazepin-5-yl]-benzamide], 94%.
Same read-out and setting: the same measure for `COc1cc2c(cc1-c1ccccc1OC(C)C)C(c1cccc(C#N)c1)=NCC(=O)N2C` [Example 63, 3-[7-(2-isopropoxy-phenyl)-8-methoxy-1-methyl-2-oxo-2,3-dihydro-1H-benzo[e][1,4]diazepin-5-yl]-benzonitrile]: 98%; for `CCCCC#Cc1cccc(C2=NCC(=O)N(C)c3cc(OC)c(-c4ccccc4)cc32)c1` [Example 66, 5-(3-Hex-1-ynyl-phenyl)-8-methoxy-1-methyl-7-phenyl-1,3-dihydro-benzo[e][1,4]diazepin-2-one]: 86%.
